Experiments:
[1] = target: T1, glucosylceramide synthase (GCS) (Homo sapiens, UniProt Q16739); assay: GCS enzyme inhibition assay (A549 cell lysate, NBD C6-ceramide, HPLC fluorescence); format: biochemical; details: inhibitory activity against GCS, 37° C., 90 minutes
T1 construct: The obtained supernatant was used; host or cells: A549 cells (lysate supernatant after sonication)
T1 sequence (Q16739 1-394): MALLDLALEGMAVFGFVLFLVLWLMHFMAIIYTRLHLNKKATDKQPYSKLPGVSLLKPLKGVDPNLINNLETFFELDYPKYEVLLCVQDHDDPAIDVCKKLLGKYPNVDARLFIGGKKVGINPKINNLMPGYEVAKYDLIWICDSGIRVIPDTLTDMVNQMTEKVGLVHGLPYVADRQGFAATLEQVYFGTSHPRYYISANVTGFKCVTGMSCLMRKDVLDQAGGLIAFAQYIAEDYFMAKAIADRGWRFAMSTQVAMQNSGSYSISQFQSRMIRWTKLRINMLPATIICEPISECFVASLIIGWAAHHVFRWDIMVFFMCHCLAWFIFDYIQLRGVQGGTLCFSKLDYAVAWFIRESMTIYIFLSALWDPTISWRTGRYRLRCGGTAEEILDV
Method in brief: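 Percent GCS activity was derived from the GlcCer share of Cer plus GlcCer areas, scaled from ibiglustat (0%) to DMSO (100%). Enzyme came from sonicated A549 lysate in 50 mM HEPES pH 7.3; 90 min incubation at 37° C, chloroform/methanol stop and extraction.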

[2] = tested on: GM1 production in Jurkat cells; assay: cells; format: cell-based; details: Homo sapiens, Jurkat, 72 h

CC(C)(C)c1ccc(-c2cc3c(cc2F)C(NC(=O)O[C@@H]2CN4CCC2CC4)C(C)(C)CO3)cc1 (stereo partly drawn) [Example 345, (S)-quinuclidin-3-yl (7-(4-(tert-butyl)phenyl)-6-fluoro-3,3-dimethylchroman-4-yl)carbamate]
IC50 [1]: 0.37 nM | IC50 [2]: 1.6 nM

COc1cc2c(cc1-c1ccc(OC(C)C)c(Cl)c1)OCC(C)(C)C2NC(=O)O[C@@H]1CN2CCC1CC2 (stereo partly drawn) [Example 363, (S)-quinuclidin-3-yl (7-(3-chloro-4-isopropoxyphenyl)-6-methoxy-3,3-dimethylchroman-4-yl)carbamate]
IC50 [1]: 0.75 nM | IC50 [2]: 8.7 nM

O=C(NC1CCOc2cc(-c3cc(Cl)cc(C(F)(F)F)c3)ccc21)O[C@@H]1CN2CCC1CC2 (stereo partly drawn) [Example 34, (S)-quinuclidin-3-yl (7-(3-chloro-5-(trifluoromethyl)phenyl)chroman-4-yl)carbamate]
IC50 [1]: 1.97 nM | IC50 [2]: 5.97 nM

CC1(C)COc2cc(-c3ccc4c(c3)OC(F)(F)O4)ccc2C1NC(=O)O[C@@H]1CN2CCC1CC2 (stereo partly drawn) [Example 149, (S)-quinuclidin-3-yl (7-(2,2-difluorobenzo[d][1,3]dioxol-5-yl)-3,3-dimethylchroman-4-yl)carbamate]
IC50 [1]: 0.41 nM | IC50 [2]: 0.03 nM

COc1ncc(-c2ccc3c(c2)OCC(C)(C)C3NC(=O)O[C@@H]2CN3CCC2CC3)cc1Cl (stereo partly drawn) [Example 215, (S)-quinuclidin-3-yl (7-(5-chloro-6-methoxypyridin-3-yl)-3,3-dimethylchroman-4-yl)carbamate]
IC50 [1]: 1.57 nM | IC50 [2]: 2.51 nM

CC1(C)COc2cc(-c3ccc(OC(F)(F)F)cc3)ccc2C1NC(=O)O[C@@H]1CN2CCC1CC2 (stereo partly drawn) [Example 201, (S)-quinuclidin-3-yl (3,3-dimethyl-7-(4-(trifluoromethoxy)phenyl)chroman-4-yl)carbamate]
IC50 [1]: 0.41 nM | IC50 [2]: 1.12 nM

COCCOc1ccccc1-c1ccc2c(c1)OCCC2NC(=O)O[C@@H]1CN2CCC1CC2 (stereo partly drawn) [Example 7, (S)-quinuclidin-3-yl (7-(2-(2-methoxyethoxy)phenyl)chroman-4-yl)carbamate]
IC50 [1]: 3.28 nM | IC50 [2]: 34.1 nM

CC1(C)COc2cc(-c3ccc4nonc4c3)ccc2C1NC(=O)O[C@@H]1CN2CCC1CC2 (stereo partly drawn) [Example 220, (S)-quinuclidin-3-yl (7-(benzo[c][1,2,5]oxadiazol-5-yl)-3,3-dimethylchroman-4-yl)carbamate]
IC50 [1]: 0.8 nM | IC50 [2]: 2.42 nM

CC1(C)COc2cc(-c3cccc(-c4ccccc4)c3)ccc2C1NC(=O)O[C@@H]1CN2CCC1CC2 (stereo partly drawn) [Example 154, (S)-quinuclidin-3-yl (7-([1,1′-biphenyl]-3-yl)-3,3-dimethylchroman-4-yl)carbamate]
IC50 [1]: 0.74 nM | IC50 [2]: 0.41 nM

CC1(C)COc2cc(-c3ccc4c(c3)OCCCO4)ccc2C1NC(=O)O[C@@H]1CN2CCC1CC2 (stereo partly drawn) [Example 190, (S)-quinuclidin-3-yl (7-(3,4-dihydro-2H-benzo[b][1,4]dioxepin-7-yl)-3,3-dimethylchroman-4-yl)carbamate]
IC50 [1]: 0.29 nM | IC50 [2]: 0.03 nM

CC1(C)COc2cc(-c3cccc(F)c3)ccc2C1NC(=O)O[C@@H]1CN2CCC1CC2 (stereo partly drawn) [Example 102, (S)-quinuclidin-3-yl (7-(3-fluorophenyl)-3,3-dimethylchroman-4-yl)carbamate]
IC50 [1]: 0.8 nM | IC50 [2]: 2.81 nM

O=C(NC1CCOc2ccc(-c3ccccc3F)cc21)O[C@@H]1CN2CCC1CC2 (stereo partly drawn) [Example 87, (S)-quinuclidin-3-yl (6-(2-fluorophenyl)chroman-4-yl)carbamate]
IC50 [1]: 3.57 nM | IC50 [2]: 98.7 nM

CC1(C)COc2cc(-c3ccc4ccccc4c3)ccc2C1NC(=O)O[C@@H]1CN2CCC1CC2 (stereo partly drawn) [Example 130, (S)-quinuclidin-3-yl (3,3-dimethyl-7-(naphthalen-2-yl)chroman-4-yl)carbamate]
IC50 [1]: 0.71 nM | IC50 [2]: 1.4 nM

Cc1ccc(-c2ccc3c(c2)OCC(C)(C)C3NC(=O)O[C@@H]2CN3CCC2CC3)c2cccnc12 (stereo partly drawn) [Example 113, (S)-quinuclidin-3-yl (3,3-dimethyl-7-(8-methylquinolin-5-yl)chroman-4-yl)carbamate]
IC50 [1]: 2.92 nM | IC50 [2]: 13 nM

O=C(NC1CCOc2cc(-c3ccccc3C(F)(F)F)ccc21)O[C@@H]1CN2CCC1CC2 (stereo partly drawn) [Example 11, (S)-quinuclidin-3-yl (7-(2-(trifluoromethyl)phenyl)chroman-4-yl)carbamate]
IC50 [1]: 10.4 nM | IC50 [2]: 18.2 nM

CC1(C)COc2cc(-c3cccc(C(F)(F)F)c3)ccc2C1NC(=O)O[C@@H]1CN2CCC1CC2 (stereo partly drawn) [Example 104, (S)-quinuclidin-3-yl (3,3-dimethyl-7-(3-(trifluoromethyl)phenyl)chroman-4-yl)carbamate]
IC50 [1]: 1 nM | IC50 [2]: 1.02 nM

COc1cccc(-c2ccc3c(c2)OCCC3NC(=O)O[C@@H]2CN3CCC2CC3)c1Cl (stereo partly drawn) [Example 67, (S)-quinuclidin-3-yl (7-(2-chloro-3-methoxyphenyl)chroman-4-yl)carbamate]
IC50 [1]: 0.93 nM | IC50 [2]: 11.3 nM

O=C(NC1CCOc2ccc(-c3ccc(Cl)cc3)cc21)O[C@@H]1CN2CCC1CC2 (stereo partly drawn) [Example 88, (S)-quinuclidin-3-yl (6-(4-chlorophenyl)chroman-4-yl)carbamate]
IC50 [1]: 9.41 nM | IC50 [2]: 160 nM

CC1(C)COc2cc(-c3ccc(OC(F)F)cc3)ccc2C1NC(=O)O[C@@H]1CN2CCC1CC2 (stereo partly drawn) [Example 218, (S)-quinuclidin-3-yl (7-(4-(difluoromethoxy)phenyl)-3,3-dimethylchroman-4-yl)carbamate]
IC50 [1]: 0.4 nM | IC50 [2]: 2.69 nM

CC1(C)COc2cc(-c3ccc(F)cc3)ccc2C1NC(=O)O[C@@H]1CN2CCC1CC2 (stereo partly drawn) [Example 214, (S)-quinuclidin-3-yl (7-(4-fluorophenyl)-3,3-dimethylchroman-4-yl)carbamate]
IC50 [1]: 0.55 nM | IC50 [2]: 1.81 nM

O=C(NC1CCOc2cc(-c3ccccc3Cl)ccc21)O[C@@H]1CN2CCC1CC2 (stereo partly drawn) [Example 10, (S)-quinuclidin-3-yl (7-(2-chlorophenyl)chroman-4-yl)carbamate]
IC50 [1]: 2.02 nM | IC50 [2]: 7.23 nM

CC(C)Oc1ccc(F)c(-c2ccc3c(c2)OCC(C)(C)C3NC(=O)O[C@@H]2CN3CCC2CC3)c1 (stereo partly drawn) [Example 135, (S)-quinuclidin-3-yl (7-(2-fluoro-5-isopropoxyphenyl)-3,3-dimethylchroman-4-yl)carbamate]
IC50 [1]: 0.44 nM | IC50 [2]: 3.46 nM

COc1cc(F)c(-c2ccc3c(c2)OCC(C)(C)C3NC(=O)O[C@@H]2CN3CCC2CC3)cc1F (stereo partly drawn) [Example 123, (S)-quinuclidin-3-yl (7-(2,5-difluoro-4-methoxyphenyl)-3,3-dimethylchroman-4-yl)carbamate]
IC50 [1]: 0.79 nM | IC50 [2]: 4.24 nM

CN(C)c1cccc(-c2ccc3c(c2)OCCC3(C)NC(=O)O[C@@H]2CN3CCC2CC3)c1 (stereo partly drawn) [Example 303, (S)-quinuclidin-3-yl (7-(3-(dimethylamino)phenyl)-4-methylchroman-4-yl)carbamate]
IC50 [1]: 0.5 nM | IC50 [2]: 3.2 nM

COc1cc(-c2ccc3c(c2)OCC(C)(C)C3NC(=O)O[C@@H]2CN3CCC2CC3)ccc1Cl (stereo partly drawn) [Example 177, (S)-quinuclidin-3-yl (7-(4-chloro-3-methoxyphenyl)-3,3-dimethylchroman-4-yl)carbamate]
IC50 [1]: 1.39 nM | IC50 [2]: 9.73 nM

CC(C)(C)c1ccc(-c2ccc3c(c2)OCCC3NC(=O)O[C@@H]2CN3CCC2CC3)cc1 (stereo partly drawn) [Example 26, (S)-quinuclidin-3-yl (7-(4-(tert-butyl)phenyl)chroman-4-yl)carbamate]
IC50 [1]: 10.2 nM | IC50 [2]: 23.3 nM

CC1(C)COc2cc(-c3cc(Cl)cc(Cl)c3)ccc2C1NC(=O)O[C@@H]1CN2CCC1CC2 (stereo partly drawn) [Example 179, (S)-quinuclidin-3-yl (7-(3,5-dichlorophenyl)-3,3-dimethylchroman-4-yl)carbamate]
IC50 [1]: 1.31 nM | IC50 [2]: 4.42 nM

CC1(C)COc2cc(-c3cncc4ccccc34)ccc2C1NC(=O)O[C@@H]1CN2CCC1CC2 (stereo partly drawn) [Example 155, (S)-quinuclidin-3-yl (7-(isoquinolin-4-yl)-3,3-dimethylchroman-4-yl)carbamate]
IC50 [1]: 0.6 nM | IC50 [2]: 0.77 nM

COc1ccc(OC)c(-c2ccc3c(c2)OCC(C)(C)C3NC(=O)O[C@@H]2CN3CCC2CC3)c1 (stereo partly drawn) [Example 126, (S)-quinuclidin-3-yl (7-(2,5-dimethoxyphenyl)-3,3-dimethylchroman-4-yl)carbamate]
IC50 [1]: 0.58 nM | IC50 [2]: 0.85 nM

COc1ccccc1-c1ccc2c(c1)OCC(C)(C)C2NC(=O)O[C@@H]1CN2CCC1CC2 (stereo partly drawn) [Example 162, (S)-quinuclidin-3-yl (7-(2-methoxyphenyl)-3,3-dimethylchroman-4-yl)carbamate]
IC50 [1]: 0.52 nM | IC50 [2]: 0.02 nM

CC1(C)COc2cc(-c3cc(F)cc(F)c3)ccc2C1NC(=O)O[C@@H]1CN2CCC1CC2 (stereo partly drawn) [Example 240, (S)-quinuclidin-3-yl (7-(3,5-difluorophenyl)-3,3-dimethylchroman-4-yl)carbamate]
IC50 [1]: 0.92 nM | IC50 [2]: 5 nM

CCOc1ccc2cc(-c3ccc4c(c3)OCC(C)(C)C4NC(=O)O[C@@H]3CN4CCC3CC4)ccc2c1 (stereo partly drawn) [Example 288, (S)-quinuclidin-3-yl (7-(6-ethoxynaphthalen-2-yl)-3,3-dimethylchroman-4-yl)carbamate]
IC50 [1]: 1.11 nM | IC50 [2]: 0.7 nM
